# From patent US8802720B2, “Acylamino-substituted fused cyclopentanecarboxylic acid derivatives and their use as pharmaceuticals” (SANOFI, priority 2008, dated 2014)
# Target: human Edg-2 receptor (LPA1 receptor) (Homo sapiens, UniProt Q92633)
# Assay: Edg-2 receptor inhibition by FLIPR calcium fluorescence measurement (LPA-mediated calcium liberation)
# Type: cell-based
# Details: CHO cells stably overexpressing human Edg-2 receptor; LPA 18:1 100 nM; fluo-4 fluorescence; triplicate; read-out: Inhibitory concentrations IC50 for inhibition of the Edg-2 receptor
# Method in brief: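 CHO cells stably overexpressing human Edg-2 were fluo-4 loaded and pre-incubated ~5 min with compound (≤0.3% DMSO) in HBSS/HEPES/probenecid, pH 7.5. Then LPA 18:1 at 100 nM final was added. Peak calcium fluorescence over ~3 min, baseline-corrected versus DMSO, gave % inhibition in triplicate and IC50.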
# Sequence of human Edg-2 receptor (LPA1 receptor) (Q92633 whole entry): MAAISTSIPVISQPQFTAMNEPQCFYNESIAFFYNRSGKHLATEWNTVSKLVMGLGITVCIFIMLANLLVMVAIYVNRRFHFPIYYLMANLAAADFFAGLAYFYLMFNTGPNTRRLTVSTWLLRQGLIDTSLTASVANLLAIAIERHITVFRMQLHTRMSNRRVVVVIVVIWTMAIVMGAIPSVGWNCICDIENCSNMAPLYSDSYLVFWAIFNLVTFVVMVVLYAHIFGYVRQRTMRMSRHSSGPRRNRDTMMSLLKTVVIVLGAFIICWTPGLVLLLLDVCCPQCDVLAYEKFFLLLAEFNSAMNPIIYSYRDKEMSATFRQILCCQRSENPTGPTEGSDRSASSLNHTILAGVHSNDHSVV
row,SMILES,IC50 [nM]
1,COc1ccc(C(=O)NC2(C(=O)O)Cc3ccccc3C2)cc1OCCc1nc(-c2ccccc2)oc1C [Example 70],1000 to 30000
2,COc1ccc(C(=O)NC2(C(=O)O)Cc3ccccc3C2)cc1OCCCc1ccccc1 [Example 151],1000 to 30000
3,"CCc1ccc(CCOc2cc(C(=O)NC3(C(=O)O)Cc4ccccc4C3)ccc2OC)nc1 [Example 205, 2-{3-[2-(5-Ethyl-pyridin-2-yl)-ethoxy]-4-methoxy-benzoylamino}-indane-2-carboxylic acid]",1000 to 30000
4,COc1ccc(C(=O)NC2(C(=O)O)Cc3ccccc3C2)cc1-c1cc(F)cc(OCC(C)C)c1 [Example 344],100 to 1000
5,"COc1ccc(C(=O)NC2(C(=O)O)Cc3ccccc3C2)cc1NCc1ccc(F)cc1 [Example 121, 2-[3-(4-Fluoro-benzylamino)-4-methoxy-benzoylamino]-indane-2-carboxylic acid]",1000 to 30000
6,CCCc1ccc(-c2cc(C(=O)NC3(C(=O)O)Cc4ccccc4C3)ccc2OC)cc1 [Example 290],1000 to 30000
7,"COc1ncc(C(=O)NC2(C(=O)O)Cc3ccccc3C2)cc1-c1cccc(SC)c1 [Example 222, 2-{[6-Methoxy-5-(3-methylsulfanyl-phenyl)-pyridine-3-carbonyl]-amino}-indane-2-carboxylic acid]",< 100
8,COc1ccc(C(=O)NC2(C(=O)O)Cc3ccccc3C2)cc1OCC1CCOC1 (stereo not shown) [Example 38],1000 to 30000
9,COc1ccc(C(=O)NC2(C(=O)O)Cc3ccccc3C2)cc1OCc1snnc1-c1ccccc1 [Example 89],1000 to 30000
10,COc1ccc(C(=O)NC2(C(=O)O)Cc3ccccc3C2)cc1-c1ccc(C)c(C)c1 [Example 291],100 to 1000
11,"COc1ccc(C(=O)NC2(C(=O)O)Cc3cccc(F)c3C2)cc1OCCc1cccc(C)c1 (stereo not shown) [Example 215, 4-Fluoro-2-[4-methoxy-3-(2-m-tolyl-ethoxy)-benzoylamino]-indane-2-carboxylic acid]",< 100
12,COc1ccc(C(=O)NC2(C(=O)O)Cc3ccccc3C2)cc1OCC1CC=CCC1 (stereo not shown) [Example 50],100 to 1000
13,COc1ccc(C(=O)NC2(C(=O)O)Cc3ccccc3C2)cc1-c1ccc(OC(C)C)c(C)c1 [Example 341],1000 to 30000
14,COc1ccc(C(=O)NC2(C(=O)O)Cc3ccccc3C2)cc1OCc1cc(C)n(C)n1 [Example 80],1000 to 30000
15,COc1ccc(C(=O)NC2(C(=O)O)Cc3ccccc3C2)cc1-c1cccc(OC(C)C)c1 [Example 319],100 to 1000
16,COc1ncc(C(=O)NC2(C(=O)O)Cc3ccccc3C2)cc1-c1cc(Cl)cc(C(F)(F)F)c1 [Example 235],< 100
17,COc1ccc(C(=O)NC2(C(=O)O)Cc3ccccc3C2)cc1OCCC1CCCC1 [Example 150],1000 to 30000
18,COc1ccc(C(=O)NC2(C(=O)O)Cc3ccccc3C2)cc1NC(=O)Cc1cccc(Br)c1 [Example 118],1000 to 30000
19,COc1ccc(C(=O)NC2(C(=O)O)Cc3ccccc3C2)cc1OCc1ccc(N2CCCC2)nc1 [Example 76],1000 to 30000
20,"COc1ccc(C(=O)NC2(C(=O)O)Cc3ccccc3C2)cc1C(O)COc1cccc(C)c1 (stereo not shown) [Example 114, 2-[3-(1-Hydroxy-2-m-tolyloxy-ethyl)-4-methoxy-benzoylamino]-indane-2-carboxylic acid]",1000 to 30000
21,"COc1ccc(C(=O)NC2(C(=O)O)Cc3ccccc3C2)cc1Cc1ccccc1 [Example 243, 2-[4-Methoxy-3-benzyl-benzoylamino]-indane-2-carboxylic acid]",1000 to 30000
22,"COc1ccc(C(=O)NC2(C(=O)O)Cc3ccccc3C2)cc1C(=O)c1ccccc1C [Example 240, 2-[4-Methoxy-3-(2-methyl-benzoyl)-benzoylamino]-indane-2-carboxylic acid]",1000 to 30000
23,"COc1ccc(C(=O)NC2(C(=O)O)Cc3ccccc3C2)cc1Cc1ccccc1C [Example 242, 2-[4-Methoxy-3-(2-methyl-benzyl)-benzoylamino]-indane-2-carboxylic acid]",100 to 1000
24,COc1ccc(C(=O)NC2(C(=O)O)Cc3ccccc3C2)cc1-c1ccc(CC(C)C)cc1 [Example 197],1000 to 30000

# Next, values leading:
row,IC50 [nM],SMILES
1,< 100,CCc1cccc(CCOc2cc(C(=O)NC3(C(=O)O)Cc4ccccc4C3)ccc2OC)c1 [Example 23]
2,100 to 1000,COc1ccc(C(=O)NC2(C(=O)O)Cc3ccccc3C2)cc1-c1cccc(OCC(F)(F)F)c1 [Example 346]
3,< 100,"COc1c(F)cc(C(=O)NC2(C(=O)O)Cc3ccccc3C2)cc1OCCc1cccc(C)c1 [Example 106, 2-[3-Fluoro-4-methoxy-5-(2-m-tolyl-ethoxy)-benzoylamino]-indane-2-carboxylic acid]"
4,< 100,"COc1ccc(C(=O)NC2(C(=O)O)Cc3ccccc3C2)cc1OCCc1cccc(CC(N)=O)c1 [Example 248, 2-{3-[2-(3-Carbamoylmethyl-phenyl)-ethoxy]-4-methoxy-benzoylamino}-indane-2-carboxylic acid]"
5,< 100,COc1ccc(C(=O)NC2(C(=O)O)Cc3ccccc3C2)cc1-c1ccc(C(F)(F)F)c(Cl)c1 [Example 322]
6,1000 to 30000,Cc1nccnc1CCOc1cc(C(=O)NC2(C(=O)O)Cc3ccccc3C2)ccc1C(F)(F)F [Example 190]
7,100 to 1000,"Cc1cccc(CCOc2cc(C(=O)NC3(C(=O)O)Cc4ccccc4C3)ccc2N(C)C)c1 [Example 165, 2-[4-Dimethylamino-3-(2-m-tolyl-ethoxy)-benzoylamino]-indane-2-carboxylic acid]"
8,100 to 1000,O=C(NC1(C(=O)O)Cc2ccccc2C1)c1ccc(Cl)c(OCCc2cccc(C(F)(F)F)c2)c1 [Example 128]
9,1000 to 30000,COc1ccc(C(=O)NC2(C(=O)O)Cc3ccccc3C2)cc1NCc1cccc(Cl)c1 [Example 123]
10,100 to 1000,Cc1cccc(CCOc2cc(C(=O)NC3(C(=O)O)Cc4ccccc4C3)ccc2C)c1 [Example 129]
11,1000 to 30000,"Cc1cccc(CCOc2cc(C(=O)NC3(C(=O)O)Cc4ccccc4C3)ccc2O)c1 [Example 254, 2-[4-Hydroxy-3-(2-m-tolyl-ethoxy)-benzoylamino]-indane-2-carboxylic acid]"
12,1000 to 30000,"COc1ccc(C(=O)NC2(C(=O)O)Cc3ccccc3C2)cc1OCCc1cccc(S(C)(=O)=O)c1 [Example 18, 2-{3-[2-(3-Methanesulfonyl-phenyl)-ethoxy]-4-methoxy-benzoylamino}-indane-2-carboxylic acid]"
13,100 to 1000,"Cc1cccc(CCOc2cc(C(=O)NC3(C(=O)O)Cc4ccccc4C3)ccc2OC2CC2)c1 [Example 272, 2-[4-Cyclopropoxy-3-(2-m-tolyl-ethoxy)-benzoylamino]-indane-2-carboxylic acid]"
14,1000 to 30000,"COc1ccc(C(=O)NC2(C(=O)O)Cc3ccccc3C2)cc1OCCc1cccc(C(=O)O)c1 [Example 96, 2-{3-[2-(3-Carboxy-phenyl)-ethoxy]-4-methoxy-benzoylamino}-indane-2-carboxylic acid]"
15,< 100,"COc1ccc(C(=O)NC2(C(=O)O)Cc3ccccc3C2)cc1OCCc1cccc(C(F)(F)F)c1 [Example 127, 2-{4-methoxy-3-[2-(3-trifluoromethyl-phenyl)-ethoxy]-benzoylamino}-indane-2-carboxylic acid]"
16,< 100,"O=C(NC1(C(=O)O)Cc2ccccc2C1)c1ccc(C(F)(F)F)c(OCCc2cccc(Cl)c2)c1 [Example 186, 2-{3-[2-(3-chloro-phenyl)-ethoxy]-4-trifluoromethyl-benzoylamino}-indane-2-carboxylic acid]"
